Source: ChEMBL document CHEMBL1201862, “PubChem BioAssay data set” (2004)
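Method: 48-hour compound exposure of cells in 96-well plates, five concentrations, linear interpolation of endpoints. GI50 marks 50% less growth.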 Activity calls are given as the source filed them. Rule as the data show it: active = GI50 up to about 1.1 µM and inactive = higher.

Columns and labels:
Assay in all cases: inhibition of tumour cell growth, NCI panel, 48 h
Malme-3M = test system: Malme-3M
NCI-H460 = test system: NCI-H460
UACC-62 = test system: UACC-62
MDA-MB-435 = test system: MDA-MB-435
K562 = test system: K562
SR = test system: SR
NCI-H522 = test system: NCI-H522
KM12 = test system: KM12
PC-3 = test system: PC-3
OVCAR-5 = test system: OVCAR-5
COLO 205 = test system: COLO 205
HL-60 = test system: HL-60
MCF7 = test system: MCF7
MDA-N = test system: MDA-N
TK-10 = test system: TK-10
HCC 2998 = test system: HCC 2998
MDA-MB-231 = test system: MDA-MB-231
M14 = test system: M14
SK-MEL-2 = test system: SK-MEL-2
CCRF-CEM = test system: CCRF-CEM

Row | Structure (SMILES) | GI50 (Malme-3M) | GI50 (NCI-H460) | GI50 (UACC-62) | GI50 (MDA-MB-435) | GI50 (K562) | GI50 (SR) | GI50 (NCI-H522) | GI50 (KM12) | GI50 (PC-3) | GI50 (OVCAR-5) | GI50 (COLO 205) | GI50 (HL-60) | GI50 (MCF7) | GI50 (MDA-N) | GI50 (TK-10) | GI50 (HCC 2998) | GI50 (MDA-MB-231) | GI50 (M14) | GI50 (SK-MEL-2) | GI50 (CCRF-CEM)
1 | CN(C)C/C=C(/c1ccc(Br)cc1)c1cccnc1 | 20.2 µM (inactive) | 81.3 µM (inactive) | 19.6 µM (inactive) | 32.9 µM (inactive) | 32.2 µM (inactive) | 34.8 µM (inactive) | 56.4 µM (inactive) | 74.1 µM (inactive) | > 100 µM (inactive) | > 100 µM (inactive) | 16.6 µM (inactive) | 0.0165 µM (active) | 63.8 µM (inactive) | 38.3 µM (inactive) | 65.9 µM (inactive) | 15.7 µM (inactive) | 32.7 µM (inactive) | 20.2 µM (inactive) | 19.8 µM (inactive) | –
2 | COc1c(-c2cc(C)c(Cl)c(=O)[nH]2)c(O)c(OC)c2occc12 | > 100 µM (inactive) | > 100 µM (inactive) | 64 µM (inactive) | > 100 µM (inactive) | > 100 µM (inactive) | 81.8 µM (inactive) | > 100 µM (inactive) | > 100 µM (inactive) | > 100 µM (inactive) | > 100 µM (inactive) | > 100 µM (inactive) | > 100 µM (inactive) | > 100 µM (inactive) | > 100 µM (inactive) | 42.9 µM (inactive) | > 100 µM (inactive) | 75.9 µM (inactive) | > 100 µM (inactive) | > 100 µM (inactive) | –
3 | Cc1ccc(N(C=O)c2c([N+](=O)[O-])cc([N+](=O)[O-])c3c2=[N+]([O-])CN=3)cc1 | 20.3 µM (inactive) | > 100 µM (inactive) | 11.9 µM (inactive) | 30.8 µM (inactive) | 27.3 µM (inactive) | 24.9 µM (inactive) | 19.2 µM (inactive) | 43.8 µM (inactive) | 20.4 µM (inactive) | > 100 µM (inactive) | 28.5 µM (inactive) | 23 µM (inactive) | 21.2 µM (inactive) | 27.5 µM (inactive) | 35.9 µM (inactive) | 14 µM (inactive) | 18.5 µM (inactive) | 20.8 µM (inactive) | 17.7 µM (inactive) | –
4 | NC(CCC(=O)c1ccccn1)C(=O)O (stereo unspecified) | > 100 µM (inactive) | > 100 µM (inactive) | > 100 µM (inactive) | > 100 µM (inactive) | – | > 100 µM (inactive) | > 100 µM (inactive) | > 100 µM (inactive) | > 100 µM (inactive) | > 100 µM (inactive) | > 100 µM (inactive) | > 100 µM (inactive) | > 100 µM (inactive) | > 100 µM (inactive) | > 100 µM (inactive) | > 100 µM (inactive) | > 100 µM (inactive) | > 100 µM (inactive) | > 100 µM (inactive) | > 100 µM (inactive)
5 | N#Cc1cnc(N)nc1NCC1(CO)CC(CCc2ccccc2)C1 (stereo unspecified) | > 100 µM (inactive) | > 100 µM (inactive) | > 100 µM (inactive) | 25.2 µM (inactive) | 2.51 µM (inactive) | 20.1 µM (inactive) | > 55.2 µM (inactive) | > 85.5 µM (inactive) | > 91.2 µM (inactive) | > 100 µM (inactive) | > 100 µM (inactive) | – | 49.1 µM (inactive) | 29.9 µM (inactive) | > 61.5 µM (inactive) | > 100 µM (inactive) | 56.2 µM (inactive) | > 100 µM (inactive) | > 100 µM (inactive) | > 100 µM (inactive)
6 | N#CC(C#N)=CNC(N)=S | > 100 µM (inactive) | > 100 µM (inactive) | > 100 µM (inactive) | > 100 µM (inactive) | > 100 µM (inactive) | > 100 µM (inactive) | > 100 µM (inactive) | > 100 µM (inactive) | > 100 µM (inactive) | > 100 µM (inactive) | > 100 µM (inactive) | > 100 µM (inactive) | > 100 µM (inactive) | > 100 µM (inactive) | – | > 100 µM (inactive) | > 100 µM (inactive) | > 100 µM (inactive) | > 100 µM (inactive) | > 100 µM (inactive)
7 | CCOC(=O)C(Cc1ccc2c(c1)CCC2)Cc1ccc2c(c1)CCC2 | > 100 µM (inactive) | > 100 µM (inactive) | – | 42 µM (inactive) | 26.5 µM (inactive) | 25.1 µM (inactive) | 44.9 µM (inactive) | – | 38.9 µM (inactive) | > 100 µM (inactive) | – | 25.9 µM (inactive) | 45.4 µM (inactive) | 98.4 µM (inactive) | > 100 µM (inactive) | 95.9 µM (inactive) | > 100 µM (inactive) | > 100 µM (inactive) | > 100 µM (inactive) | 27.1 µM (inactive)
